Where two headings read alike, the source gives them in different places.
Tests used:
[1] = test system: H3K27me3 in OCILY19 cells; experiment: H3K27me3 AlphaLISA assay in OCILY19 cells; format: cell-based; conditions: Homo sapiens, OCI-LY19, 144 h, 6 days with compound, read-out: OCILY-19 IC50
Procedure: (§1) 5,000 cells were plated into each well of 96-well Corning CellBing cell culture plates and incubated overnight at 37° C. in a humidified CO2 incubator. […] The cell culture plates were then incubated for 6 more days. H3K27me3 AlphaLISA assay was performed on the cell culture samples by using AlphaLISAR® H3K27me3 Cellular Detection Kit (PerkinElmer) and 96-well white half-area plates (PerkinElmer).

EED = EED (Homo sapiens, UniProt O75530); experiment: EED TR-FRET Binding Assay (modified LanthaScreen competition assay)
EED, sequence (O75530 whole entry): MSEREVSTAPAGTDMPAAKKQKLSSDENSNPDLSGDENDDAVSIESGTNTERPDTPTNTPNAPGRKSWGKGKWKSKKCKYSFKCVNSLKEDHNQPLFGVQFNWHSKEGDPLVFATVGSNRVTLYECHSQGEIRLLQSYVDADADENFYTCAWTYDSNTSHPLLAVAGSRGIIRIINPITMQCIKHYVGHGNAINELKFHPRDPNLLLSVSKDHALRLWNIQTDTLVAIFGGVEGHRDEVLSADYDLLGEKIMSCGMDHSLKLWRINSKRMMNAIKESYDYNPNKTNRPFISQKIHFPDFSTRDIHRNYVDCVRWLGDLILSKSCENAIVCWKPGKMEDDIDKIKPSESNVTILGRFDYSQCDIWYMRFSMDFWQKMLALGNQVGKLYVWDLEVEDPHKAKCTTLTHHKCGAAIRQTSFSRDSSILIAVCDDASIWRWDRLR
Method in brief: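 Competition binding in a modified LanthaScreen format, in 20 mM Tris-HCl pH 7.5, 200 mM NaCl, 0.01% Tween-20, 10 uM DTT and 0.05% BSA. Reactions ran 1 hour at 25° C before TR-FRET detection.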

Pfeiffer cells = experiment: CTG cell viability assay (CellTiter-Glo); format: cell-based; conditions: Homo sapiens, 240 h
Procedure: 1,000 cells were plated into each well of 96-well Corning CellBing cell culture plates and incubated overnight at 37° C. in a humidified CO2 incubator. […] The cell culture plates were then incubated for 10 more days. CTG cell viability assay was performed on the cell culture samples by using CellTiter-Glo® Luminescent Cell Viability Assay Kit (Promega).

H3K27me3 in G401 cells = experiment: H3K27me3 AlphaLISA assay in G401 cells; format: cell-based; conditions: Homo sapiens, G-401, 144 h, 6 days with compound
Procedure: as §1, with “G401 cells (ATCC catalog # CRL-1441) were maintained in McCoy's 5a medium (ATCC) supplemented with 10% heat-inactivated FBS (HyClone) at 37° C. in a humidified CO2 incubator. OCILY19 cells (DSMZ catalog #ACC 528) were maintained in IMDM (Invitrogen) supplemented with 10% human serum (Sigma) at 37° C. in a humidified CO2 incubator. 5,000” for “5,000”

[2] = Pfeiffer cells, 10 days with compound, CellTiter-Glo, read-out: Cell Proliferation IC50
[3] = Pfeiffer, read-out: Cell Proliferation IC50 (uM)

Structure (SMILES) | IC50 [1] | IC50 (EED) | IC50 (Pfeiffer cells; [2]) | IC50 (H3K27me3 in G401 cells) | IC50 (Pfeiffer cells; [3]) | IC50 (EED; read-out: TR-FRET Binding)
CNC(=O)Cn1cc(-c2ccc([C@@H]3CN(C4CCc5cccc(F)c54)C[C@H]3N(C)C)cn2)cn1 (mixture of isomers) [Example 161, rac-2-(4-{5-[(3R,4S)-4-(dimethylamino)-1-(7-fluoro-2,3-dihydro-1H-inden-1-yl)pyrrolidin-3-yl]pyridin-2-yl}-1H-pyrazol-1-yl)-N-methylacetamide] | 571 nM | 0.669 nM | 0.293 µM | 151 nM |  | 
CN(C)[C@H]1CN(C2CCc3cccc(F)c32)C[C@@H]1c1ccc(N2CCN(S(C)(=O)=O)CC2)cc1 (mixture of isomers) [Example 2, rac-(3R,4S)-1-(7-fluoro-2,3-dihydro-1H-inden-1-yl)-4-{4-[4-(methanesulfonyl)piperazin-1-yl]phenyl}-N,N-dimethylpyrrolidin-3-amine] | 140 nM |  |  | 99.2 nM | 0.126 µM | 
CN(C)[C@@H]1CN(C2CCc3cccc(F)c32)C[C@H]1c1ccc(N2CCN(S(=O)(=O)c3cn(C)cn3)CC2)cc1 (mixture of isomers) [Example 73, rac-(3S,4R)-1-(7-fluoro-2,3-dihydro-1H-inden-1-yl)-N,N-dimethyl-4-{4-[4-(1-methyl-1H-imidazole-4-sulfonyl)piperazin-1-yl]phenyl}pyrrolidin-3-amine] | 113 nM | 0.825 nM | 0.0995 µM |  |  | 
CN(C)[C@H]1CN([C@@H]2C[C@H](F)c3cccc(F)c32)C[C@@H]1c1ccc(S(C)(=O)=O)cc1 (mixture of isomers) [Example 31, rac-(3R,4S)-1-[(1R,3S)-3,7-difluoro-2,3-dihydro-1H-inden-1-yl]-4-[4-(methanesulfonyl)phenyl]-N,N-dimethylpyrrolidin-3-amine] | 3450 nM | 8.19 nM | 0.754 µM |  |  | 
CN1CCN(C(=O)c2cccc3c([C@H]4CN(C5CCc6cccc(F)c65)C[C@@H]4N(C)C)cn(C)c23)CC1=O (mixture of isomers) [Example 125, rac-4-{3-[(3S,4R)-4-(dimethylamino)-1-(7-fluoro-2,3-dihydro-1H-inden-1-yl)pyrrolidin-3-yl]-1-methyl-1H-indole-7-carbonyl}-1-methylpiperazin-2-one] | 203 nM | 1.07 nM | 0.268 µM |  |  | 
CN(C)[C@@H]1CN(C2CCc3cccc(F)c32)C[C@H]1c1ccc(N2CCN(C(=O)CNS(C)(=O)=O)CC2)nc1 (mixture of isomers) [Example 155, rac-N-[2-(4-{5-[(3R,4S)-4-(dimethylamino)-1-(7-fluoro-2,3-dihydro-1H-inden-1-yl)pyrrolidin-3-yl]pyridin-2-yl}piperazin-1-yl)-2-oxoethyl]methanesulfonamide] | 3220 nM | 1.75 nM | 0.395 µM |  |  | 
CN1CCN(c2ccc([C@H]3CN(C4CCc5cccc(F)c54)C[C@@H]3N(C)C)cc2)CC1 (mixture of isomers) [Example 61, rac-(3R,4S)-1-(7-fluoro-2,3-dihydro-1H-inden-1-yl)-N,N-dimethyl-4-[4-(4-methylpiperazin-1-yl)phenyl]pyrrolidin-3-amine] | 804 nM | 1.14 nM | 0.204 µM |  |  | 
CC(=O)N1CCN(c2ccc([C@H]3CN(C4CCc5cccc(F)c54)C[C@@H]3N(C)C)cc2)CC1 (mixture of isomers) [Example 44, rac-1-(4-{4-[(3S,4R)-4-(dimethylamino)-1-(7-fluoro-2,3-dihydro-1H-inden-1-yl)pyrrolidin-3-yl]phenyl}piperazin-1-yl)ethan-1-one] | 144 nM | 0.652 nM |  |  | 0.0836 µM | 
CN(C)[C@H]1CN([C@H]2CCc3cccc(F)c32)C[C@@H]1c1cn(C)c2ccccc12 [Example 77, (3R,4S)-1-[(1S)-7-fluoro-2,3-dihydro-1H-inden-1-yl]-N,N-dimethyl-4-(1-methyl-1H-indol-3-yl)pyrrolidin-3-amine] | 655 nM |  |  |  | 1.07 µM | 1.03 nM
CNC(=O)c1ccc([C@H]2CN(C3CCc4cccc(F)c43)C[C@@H]2N(C)C)cc1 (mixture of isomers) [Example 24, rac-4-[(3S,4R)-4-(dimethylamino)-1-(7-fluoro-2,3-dihydro-1H-inden-1-yl)pyrrolidin-3-yl]-N-methylbenzamide] | 601 nM | 20.5 nM | 2.92 µM |  |  | 
CN(C)[C@@H]1CN(C2CCc3cccc(F)c32)C[C@H]1c1ccc(N2CCN(C(=O)CO)CC2)cc1 (mixture of isomers) [Example 52, rac-1-(4-{4-[(3R,4S)-4-(dimethylamino)-1-(7-fluoro-2,3-dihydro-1H-inden-1-yl)pyrrolidin-3-yl]phenyl}piperazin-1-yl)-2-hydroxyethan-1-one] | 75 nM | 1 nM | 0.0894 µM |  |  | 
CCS(=O)(=O)N1CCN(C(=O)c2cccc3c([C@H]4CN(C5CCc6cccc(F)c65)C[C@@H]4N(C)C)cn(C)c23)CC1 (mixture of isomers) [Example 130, rac-{3-[(3S,4R)-4-(dimethylamino)-1-(7-fluoro-2,3-dihydro-1H-inden-1-yl)pyrrolidin-3-yl]-1-methyl-1H-indol-7-yl}[4-(ethanesulfonyl)piperazin-1-yl]methanone] | 306 nM | 1.05 nM | 0.311 µM |  |  | 
CC(=O)N1CCN(c2ccc([C@H]3CN(C4CCc5cccc(F)c54)C[C@@H]3N(C)C)cc2)CC1 (stereo partly drawn) [Example 43, 1-(4-{4-[(3S,4R)-4-(dimethylamino)-1-(7-fluoro-2,3-dihydro-1H-inden-1-yl)pyrrolidin-3-yl]phenyl}piperazin-1-yl)ethan-1-one] | 50.4 nM | 0.297 nM |  | 32.6 nM |  | 
CC(=O)N1CCN(C(=O)c2cccc3c([C@H]4CN(C5CCc6cccc(F)c65)C[C@@H]4N(C)C)cn(C)c23)CC1 (mixture of isomers) [Example 128, rac-1-(4-{3-[(3S,4R)-4-(dimethylamino)-1-(7-fluoro-2,3-dihydro-1H-inden-1-yl)pyrrolidin-3-yl]-1-methyl-1H-indole-7-carbonyl}piperazin-1-yl)ethan-1-one] | 241 nM | 1.03 nM | 0.194 µM |  |  | 
CN(C)[C@H]1CN(C2CCc3cccc(F)c32)C[C@@H]1c1ccc(C(=O)N2CC[C@H](O)C2)cc1 (mixture of isomers) [Example 40, rac-{4-[(3S,4R)-4-(dimethylamino)-1-(7-fluoro-2,3-dihydro-1H-inden-1-yl)pyrrolidin-3-yl]phenyl}[(3S)-3-hydroxypyrrolidin-1-yl]methanone] | 1080 nM | 4.62 nM | 0.941 µM |  |  | 
CN(C)[C@H]1CN(C2CCc3cccc(F)c32)C[C@@H]1c1ccc(N2CCN(S(C)(=O)=O)CC2)cc1 (mixture of isomers) [Example 1, (3R,4S)-1-(7-fluoro-2,3-dihydro-1H-inden-1-yl)-4-{4-[4-(methanesulfonyl)piperazin-1-yl]phenyl}-N,N-dimethylpyrrolidin-3-amine] | 62.1 nM |  |  | 55.5 nM | 0.0725 µM | 
CN(C)[C@H]1CN(C2CCc3ccccc32)C[C@@H]1c1cn(C)c2ccccc12 (stereo partly drawn) [Example 88, (3R,4S)-1-(2,3-dihydro-1H-inden-1-yl)-N,N-dimethyl-4-(1-methyl-1H-indol-3-yl)pyrrolidin-3-amine] | 2440 nM | 26.2 nM |  |  | 3.55 µM | 
CN(C)C(=O)c1ccc([C@H]2CN(C3CCc4cccc(Cl)c43)C[C@@H]2N(C)C)cc1 (mixture of isomers) [Example 25, rac-4-[(3S,4R)-1-(7-chloro-2,3-dihydro-1H-inden-1-yl)-4-(dimethylamino)pyrrolidin-3-yl]-N,N-dimethylbenzamide] | 1060 nM | 18.2 nM | 2.93 µM |  |  | 
CN(C)[C@H]1CN([C@H]2CCc3cccc(F)c32)C[C@@H]1c1ccc(S(C)(=O)=O)cc1 [Example 11, (3R,4S)-1-[(1S)-7-fluoro-2,3-dihydro-1H-inden-1-yl]-4-[4-(methanesulfonyl)phenyl]-N,N-dimethylpyrrolidin-3-amine] | 171 nM | 23.1 nM | 0.301 µM |  |  | 
CN(C)[C@H]1CN(C2CCc3cccc(Cl)c32)C[C@@H]1c1cn(C)c2ccccc12 (stereo partly drawn) [Example 89, (3R,4S)-1-(7-chloro-2,3-dihydro-1H-inden-1-yl)-N,N-dimethyl-4-(1-methyl-1H-indol-3-yl)pyrrolidin-3-amine] | 4350 nM | 31 nM | 6.37 µM |  |  | 
CN(C)[C@H]1CN([C@H]2C[C@H](F)c3cccc(F)c32)C[C@@H]1c1ccc(S(C)(=O)=O)cc1 (mixture of isomers) [Example 32, rac-(3R,4S)-1-[(1S,3S)-3,7-difluoro-2,3-dihydro-1H-inden-1-yl]-4-[4-(methanesulfonyl)phenyl]-N,N-dimethylpyrrolidin-3-amine] | 2110 nM | 4.54 nM | 2.81 µM |  |  | 

Source: patent publication US9957274B2, “Indane inhibitors of EED and methods of their use” (AbbVie Inc., priority 2016, dated 2018)
